How the values were obtained:
[1] = target: T1, human SSTR2 (Homo sapiens, UniProt P30874); assay: Evaluation of SSTR2 agonist activity using human SSTR2 expressing cells (inhibition of Forskolin-stimulated cAMP production in SSTR2-CHO-K1); type: cell-based; settings: read-out: EC50 of agonist activity against human SSTR2
T1 construct: Myc; expressed in transfected cells
Description: Evaluation of SSTR2 Agonist Activity Using Human SSTR2 Expressing Cells
CHO-K1 (−) were cultured using Ham's F-12 (including FBS (10%), penicillin (100 U/mL) and streptomycin (0.1 mg/mL)) as medium. The transduced cells were cultured using the medium above with geneticin (1 mg/ml).
The plasmid pIRESneo-Myc/hSSTR2 was transduced into CHO-K1 (−) cell using Lipofectamine 2000 (Invitrogen). After 48 hours, the medium was changed to the medium including 1 mg/mL Geneticin, overexpressing cells were selected and stably overexpressing cells (SSTR2-CHO-K1) were established.
Human SSTR2 agonist activity of test compounds was evaluated by following procedure using inhibition activity against intracellular cyclic AMP (cAMP) production stimulated by Forskolin as an indicator. The SSTR2-CHO-K1 cells suspended in Ham's F-12 medium (including fetal bovine serum (10%), penicillin (100 U/mL), streptomycin (0.1 mg/mL)) including 0.25 mg/mL Geneticin was seeded in 96 wells plate (4.0×10^4 cells/0.1 mL/1 well). After 1 day, the medium was removed and the cells were washed with 0.1 mL of wash buffer solution [0.1% bovine serum albumin (BSA), Hank's Balanced Salt Solution (HBSS) including 20 mmol/L 4-(2-hydroxyethyl)-1-piperazine ethanesulfonic acid (HEPES)] twice. To the cells added 0.06 mL/well assay buffer [500 nmol/L 3-isobutyl-1-methylxanthine (IBMX), 0.1% BSA, 20 mmol/L HBSS including HEPES], and incubated for 15 min. under 5% CO2 and 37° C. Next, to the cells added 0.06 mL/well assay buffer including test compounds of the double concentration of final concentration and 0.02 mmol/L Forskolin, and incubated for 30 min. under 5% CO2 and 37° C. After that, to the cells added 0.12 mL/well Assay/Lysis buffer included with cAMP-Screen® kit (Applied Biosystems®), and incubated for 30 min. under 5% CO2 and 37° C. The concentration of c-AMP is determined by ELISA test according to manual included with the kit.

[2] = tested on: Growth Hormone (GH) secretion; assay: Evaluation of Growth Hormone (GH) secretory inhibitory activity using rat (GHRH-evoked); type: in vivo
Description: Evaluation of Growth Hormone (GH) secretory inhibitory activity using rat.
Test compounds dissolved in vehicle (distillated water (Otsuka jouryuusui, Otsuka Pharmaceutical Factory, Inc.) or vehicle only was administered to rat (7-week-old, male Crl: CD (SD) IGS rat (CHARLES RIVER LABORATORIES JAPAN, INC.)) orally, and 27 min. later, 50 mg/kg of sodium pentobarbital (Somunopentil® Kyoritsu Seiyaku) was administered by tail vein injection to be anesthetized. Three minutes after administration of sodium pentobarbital, 0.01 mg/kg of growth hormone-releasing hormone (GHRH, Bachem) was administered by tail vein injection to evoke GH secretion. To measure blood concentration of GH, 0.2 mL blood sample from cervical vein was collected 5 minutes after administration of GHRH. The blood samples were treated with centrifugation at 13,000 g at 4° C. for 5 min. to obtain plasma sample. Blood concentration of GH was determined by Rat/Mouse Growth Hormone ELISA (Millipore) according to the procedure manual.
Test compounds dissolved in vehicle (distillated water (Otsuka jouryuusui, Otsuka Pharmaceutical Factory, Inc.) or vehicle only was administered to rat (7-week-old, male Crl: CD (SD) IGS rat (CHARLES RIVER LABORATORIES JAPAN, INC.)) orally, and 7 hours 57 minutes later, 50 mg/kg of sodium pentobarbital (Somunopentil® Kyoritsu Seiyaku) was administered by tail vein injection to be anesthetized. Three min. after administration of sodium pentobarbital, 0.01 mg/kg of growth hormone-releasing hormone (GHRH, Bachem) was given by tail vein injection to evoke GH secretion. Procedure after that was same as [Procedure (A)]

[3] = Evaluation of the cell toxicity using cultured human hepatocyte (ATP, Celltiter-Glo); type: cell-based; settings: cultured adherent human hepatocytes (thawed from frozen); cultured human hepatocytes, 24 hours, ATP concentration; read-out: IC50 (50% inhibitory compound concentration of the emission of light, cell toxicity)
Description: (§1) Evaluation of the cell toxicity using cultured human hepatocyte.
(§2) Frozen adherent human hepatocyte was thawed and suspended in hepatocyte cultured medium (HCM) purchased from Lonza, and then seeded in 96 wells plate coated by collagen. The hepatocytes were cultured overnight in the incubator (5% carbon dioxide, 95% air, 37° C.) and its medium was replaced with medium including test compounds ([…]) and cultured for 24 hours more. The cell toxicity was evaluated by measurement of ATP concentration in the cells. Specifically, using Promega Celltiter-Glo luminescent assay kit made by Promega KK, the cells were dissolved in an accompanying assay buffer and the ATP concentration released from the cells was determined by an emission of light of the luciferin-luciferase enzyme activity. The emission of light was measured by Molecular device's SpectraMax plate reader. A degree of toxicity was shown 50% inhibitory compound concentration of the emission of light (IC50).

[4] = tested on: cultured human hepatocyte; assay: as above; type: cell-based; settings: IC50 of Biological Example 4 / EC50 of Biological Example 1
Description: as §1, §2

[5] = target: somatostatin receptor subtype 2 (SSTR2) (Homo sapiens, UniProt P30874); settings: reported in background art; cited from earlier work
Sequence of somatostatin receptor subtype 2 (SSTR2) (P30874 whole entry, species assumed): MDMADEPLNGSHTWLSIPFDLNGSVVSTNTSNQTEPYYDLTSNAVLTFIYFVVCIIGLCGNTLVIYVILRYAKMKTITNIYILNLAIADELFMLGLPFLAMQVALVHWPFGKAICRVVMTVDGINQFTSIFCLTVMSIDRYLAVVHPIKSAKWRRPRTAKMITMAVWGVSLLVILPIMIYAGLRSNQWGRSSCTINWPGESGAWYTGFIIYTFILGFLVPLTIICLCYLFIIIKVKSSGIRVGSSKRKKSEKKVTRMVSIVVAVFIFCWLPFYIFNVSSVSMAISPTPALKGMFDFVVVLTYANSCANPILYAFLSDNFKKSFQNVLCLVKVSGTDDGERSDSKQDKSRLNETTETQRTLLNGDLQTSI

[6] = target: somatostatin receptor subtype 3 (SSTR3) (Homo sapiens, UniProt P32745); settings: reported in background art; cited from earlier work
Sequence of somatostatin receptor subtype 3 (SSTR3) (P32745 whole entry, species assumed): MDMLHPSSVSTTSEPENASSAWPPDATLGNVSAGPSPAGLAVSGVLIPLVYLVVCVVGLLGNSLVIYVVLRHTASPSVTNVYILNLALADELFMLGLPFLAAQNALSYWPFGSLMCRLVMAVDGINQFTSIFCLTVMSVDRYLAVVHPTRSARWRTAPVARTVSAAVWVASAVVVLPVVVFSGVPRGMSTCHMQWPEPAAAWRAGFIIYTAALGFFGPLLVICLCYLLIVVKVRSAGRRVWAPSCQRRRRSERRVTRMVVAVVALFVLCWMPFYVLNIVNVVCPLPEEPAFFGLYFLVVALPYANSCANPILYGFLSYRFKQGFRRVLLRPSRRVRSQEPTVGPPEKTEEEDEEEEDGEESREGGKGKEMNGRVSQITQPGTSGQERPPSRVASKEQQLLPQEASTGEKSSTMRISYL

[7] = target: somatostatin receptor subtype 1 (SSTR1) (Homo sapiens, UniProt P30872); settings: reported in background art; cited from earlier work
Sequence of somatostatin receptor subtype 1 (SSTR1) (P30872 whole entry, species assumed): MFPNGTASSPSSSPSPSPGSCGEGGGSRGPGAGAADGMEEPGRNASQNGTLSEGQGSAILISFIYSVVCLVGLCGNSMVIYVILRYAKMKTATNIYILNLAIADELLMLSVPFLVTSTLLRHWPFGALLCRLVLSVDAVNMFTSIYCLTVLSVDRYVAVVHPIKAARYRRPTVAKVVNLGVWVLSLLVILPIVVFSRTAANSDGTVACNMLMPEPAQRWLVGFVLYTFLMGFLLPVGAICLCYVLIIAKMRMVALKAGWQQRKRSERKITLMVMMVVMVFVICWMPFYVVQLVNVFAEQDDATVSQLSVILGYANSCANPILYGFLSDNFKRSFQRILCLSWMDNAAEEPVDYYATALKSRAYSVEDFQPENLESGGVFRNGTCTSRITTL

[8] = target: somatostatin receptor subtype 4 (SSTR4) (Homo sapiens, UniProt P31391); settings: reported in background art; cited from earlier work
Sequence of somatostatin receptor subtype 4 (SSTR4) (P31391 whole entry, species assumed): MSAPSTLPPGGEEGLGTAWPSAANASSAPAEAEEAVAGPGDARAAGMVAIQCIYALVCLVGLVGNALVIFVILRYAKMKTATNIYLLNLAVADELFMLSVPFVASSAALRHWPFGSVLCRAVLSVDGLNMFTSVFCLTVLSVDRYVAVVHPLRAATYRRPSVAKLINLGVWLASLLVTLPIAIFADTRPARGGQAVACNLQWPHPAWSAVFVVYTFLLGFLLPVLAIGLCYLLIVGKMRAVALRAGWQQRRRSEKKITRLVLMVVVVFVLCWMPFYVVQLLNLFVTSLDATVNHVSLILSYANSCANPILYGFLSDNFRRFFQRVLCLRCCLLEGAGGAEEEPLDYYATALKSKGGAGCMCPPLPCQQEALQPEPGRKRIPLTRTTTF

[9] = tested on: gastric acid secretion; assay: Evaluation of the gastric-acid secretion inhibitory activity using rat (gastric outlet tied off); type: in vivo; settings: dose of 0.3 mg/kg, subcutaneously
Description: Evaluation of the gastric-acid secretion inhibitory activity using rat.
After closing the laparotomy department, vehicle only (saline (Otsuka seishokuchu, Otsuka Pharmaceutical Factory, Inc.) or test compounds which were dissolved in vehicle were administered subcutaneously immediately, and the rats were recovered from anesthesia. After 2 hours from tying gastric outlet, the rats were treated with abdominal operation under isoflurane anesthesia again, pinched cardiac end of the stomach with forceps and exsanguinated to death. After stomach contents were centrifugalized at 500 g for 15 min. and the supernatant was separated as gastric fluid, the volume of gastric fluid was determined based on weight (mL/100 g BW). Furthermore, acid concentration of gastric fluid (mmol/mL) was determined by back titration using COM-1600ST automatic titrator (Hitachi High-Technologies Corporation (Hiranuma sangyo Co., Ltd.)).

[10] = 1 mg/kg orally, Procedure (B): administered 8 hours before

T1 sequence (P30874 whole entry): as the sequence (P30874 whole entry, species assumed) above

| SMILES | EC50 [1] [nM] | ratio of GH secretion inhibition [2, 10] [%] | IC50 at 24 h [3] [µM] | ratio of IC50 (hepatocyte toxicity) divided by SSTR2 agonist activity (EC50) [4] | further results |
| --- | --- | --- | --- | --- | --- |
| CC(C)[C@@H]1NC(=O)[C@H](CCCCN)NC(=O)[C@@H](Cc2c[nH]c3ccccc23)NC(=O)[C@H](Cc2ccc(O)cc2)NC(=O)[C@@H](NC(=O)[C@H](N)Cc2ccc3ccccc3c2)CSSC[C@@H](C(=O)N[C@H](C(N)=O)[C@@H](C)O)NC1=O [Lanreotide acetate] | – | – | – | – | binding affinity to SSTR2 (in words) [5]: high affinity; binding affinity to SSTR3 (in words) [6]: moderate affinity; binding to SSTR1 (in words) [7]: not to bind; binding to SSTR4 (in words) [8]: not to bind |
| Cc1cc(C)cc(-c2cncc(-c3ccc(C(F)(F)F)cc3)c2N2CCC(N)CC2)c1 [Example 26(15), 1-{3-(3,5-dimethylphenyl)-5-[4-(trifluoromethyl)phenyl]-4-pyridinyl}-4-piperidinamine] | – | – | – | – | ratio of GH secretion inhibition ([2]; 3 mg/kg orally, Procedure (B): administered 8 hours before): 92% |
| Cc1cc(C)cc(-c2cnc3cc(Cl)c(-c4cnn(C)c4)cc3c2OCC[C@H]2CCCCN2)c1 [formula (M), reference compound] | – | – | 13 | – | – |

More lines, main results first:

| EC50 [1] [nM] | SMILES | ratio of GH secretion inhibition [2, 10] [%] | IC50 at 24 h [3] [µM] | ratio of IC50 (hepatocyte toxicity) divided by SSTR2 agonist activity (EC50) [4] | further results |
| --- | --- | --- | --- | --- | --- |
| 0.034 | Cc1cc(F)cc(-c2cncc(/C=C/c3cncc(C#N)c3)c2N2CC[C@H]3NCCO[C@@H]3C2)c1 (racemic) [Example 36(8), 5-[(E)-2-{5-(3-fluoro-5-methylphenyl)-4-[rac-(4aR,8aR)-octahydro-6H-pyrido[3,4-b][1,4]oxazin-6-yl]-3-pyridinyl}vinyl]nicotinonitrile] | 83 | 69 | 2,030,000 times | – |
| 0.006 | Cc1cc(C)cc(NC(=O)c2cncc(-c3cc(C)cc(C)c3)c2N2CCC(CN)CC2)c1 [Example 2(20), 4-[4-(aminomethyl)-1-piperidinyl]-N,5-bis(3,5-dimethylphenyl)pyridine-3-carboxamide] | – | 40 | 6,670,000 times | ratio of GH secretion inhibition ([2]; 3 mg/kg orally, Procedure (A): administered 30 min before): 97%; ratio of gastric acid secretion inhibition [9]: 89% |
| 0.049 | Cc1cc(F)cc(-c2cncc(-c3ccc(C(F)(F)F)cc3)c2N2CCC(N)CC2)c1 [Example 26(24), 1-{3-(3-fluoro-5-methylphenyl)-5-[4-(trifluoromethyl)phenyl]-4-pyridinyl}-4-piperidinamine] | 91 | 35 | 710,000 times | – |
| 0.016 | Cc1cc(F)cc(-c2cncc(/C=C/c3cccc(C#N)c3)c2N2CCC(N)CC2)c1 [Example 36(5), 3-{(E)-2-[4-(4-amino-1-piperidinyl)-5-(3-fluoro-5-methylphenyl)-3-pyridinyl]vinyl}benzonitrile] | 92 | 19 | 1,190,000 times | – |

Reference: patent US10214540B2, “Compound having agonistic activity on somatostatin receptor, and use thereof for medical purposes” (ONO PHARMACEUTICAL CO., LTD., priority 2012, dated 2019)
